Source: ChEMBL document CHEMBL1201862, “PubChem BioAssay data set” (2004)
Calls of active or inactive are those of the source.

Experiments:
[1] = THP-1 cell cytotoxicity, dose response, cytotoxicity control for Vif-APOBEC3G degradation inhibitor project, THP-1 cells (AID 1117359); assay type: functional; conditions: Human immunodeficiency virus 1, THP-1
[2] = cytotoxicity toward DRD oncogenic fibroblasts, dose response, cell-based, non-viral oncogenic, luminescence (AID 1934); assay type: functional; conditions: Homo sapiens
[3] = tested on: BJ; experiment: cytotoxicity toward BJ-TERT fibroblasts, dose response, cell-based, RAS-independent, luminescence (AID 1933); assay type: functional; conditions: Homo sapiens
[4] = tested on: BJ; experiment: cytotoxicity toward BJ-TERT-LT-ST fibroblasts, dose response, cell-based, RAS-independent, luminescence (AID 1935); assay type: functional; conditions: Homo sapiens;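 also: BJ fibroblasts immortalized with TERT plus LT and ST oncogenes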
[5] = tested on: BJ; experiment: cells; assay type: functional, cell-based; conditions: Homo sapiens
[6] = microbe, parasite or virus in culture; assay type: functional; conditions: Mycobacterium tuberculosis
[7] = target: Luciferin 4-monooxygenase (Photinus pyralis, UniProt P08659); experiment: firefly luciferase enzyme inhibitors, dose response, biochemical, luminescence (AID 1891)
[8] = inhibitors of PGC1a acetylation in cells, dose response, cell-based, cherry-picked samples (AID 720514); assay type: functional;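 also: potency may reflect raised or lowered acetylation signal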
[9] = Luminescence Cell-Based Dose Confirmation HTS to Identify Inhibitors of Platelet Dense Granule Release. [Related pubchem assays: 1663 (Primary HTS), 1678 (Summary of Project)]; assay type: functional
[10] = target: Sphingosine 1-phosphate receptor 2 (Homo sapiens, UniProt O95136); experiment: Dose Response Cell Based Assay for Agonists of the S1P2 Receptor. [Related pubchem assays: 729, 736, 843 ]; assay type: functional
[11] = target: T1, DNA repair and recombination protein RAD54-like (Homo sapiens, UniProt Q92698); experiment: inhibitors of human RAD54 branch migration, confirmation, biochemical, fluorescence, cherry-picked samples, dose series (AID 651657); assay type: functional
T1 sequence (Q92698 whole entry): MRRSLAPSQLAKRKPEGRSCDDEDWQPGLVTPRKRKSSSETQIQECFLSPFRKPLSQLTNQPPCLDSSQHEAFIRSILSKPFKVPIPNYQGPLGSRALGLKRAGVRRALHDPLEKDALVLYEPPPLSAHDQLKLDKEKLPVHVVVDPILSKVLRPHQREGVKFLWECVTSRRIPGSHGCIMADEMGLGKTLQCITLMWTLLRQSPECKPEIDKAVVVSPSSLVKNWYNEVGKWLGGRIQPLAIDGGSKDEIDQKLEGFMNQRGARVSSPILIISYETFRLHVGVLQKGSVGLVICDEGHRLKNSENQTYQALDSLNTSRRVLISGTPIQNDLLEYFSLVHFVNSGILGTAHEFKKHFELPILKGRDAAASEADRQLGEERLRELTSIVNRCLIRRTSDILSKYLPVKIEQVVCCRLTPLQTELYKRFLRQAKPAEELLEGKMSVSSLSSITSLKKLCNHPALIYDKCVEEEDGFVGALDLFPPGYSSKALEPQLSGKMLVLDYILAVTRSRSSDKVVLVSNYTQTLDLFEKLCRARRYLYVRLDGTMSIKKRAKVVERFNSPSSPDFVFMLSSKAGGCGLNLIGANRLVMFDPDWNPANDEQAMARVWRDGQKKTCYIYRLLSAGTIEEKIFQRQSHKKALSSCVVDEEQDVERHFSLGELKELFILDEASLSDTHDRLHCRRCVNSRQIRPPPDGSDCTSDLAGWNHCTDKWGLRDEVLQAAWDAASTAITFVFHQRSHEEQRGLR

[12] = cells; conditions: HEK293
[13] = cells; conditions: A549
[14] = target: T2, Aminopeptidase N (Plasmodium falciparum FcB1/Columbia, UniProt O96935); experiment: P. falciparum M1AAP inhibitors, biochemical, fluorogenic H-Leu-NHMec substrate, 1536-well (AID 1445); design: species or system Plasmodium falciparum 3D7, 3D7
T2 sequence (O96935 whole entry): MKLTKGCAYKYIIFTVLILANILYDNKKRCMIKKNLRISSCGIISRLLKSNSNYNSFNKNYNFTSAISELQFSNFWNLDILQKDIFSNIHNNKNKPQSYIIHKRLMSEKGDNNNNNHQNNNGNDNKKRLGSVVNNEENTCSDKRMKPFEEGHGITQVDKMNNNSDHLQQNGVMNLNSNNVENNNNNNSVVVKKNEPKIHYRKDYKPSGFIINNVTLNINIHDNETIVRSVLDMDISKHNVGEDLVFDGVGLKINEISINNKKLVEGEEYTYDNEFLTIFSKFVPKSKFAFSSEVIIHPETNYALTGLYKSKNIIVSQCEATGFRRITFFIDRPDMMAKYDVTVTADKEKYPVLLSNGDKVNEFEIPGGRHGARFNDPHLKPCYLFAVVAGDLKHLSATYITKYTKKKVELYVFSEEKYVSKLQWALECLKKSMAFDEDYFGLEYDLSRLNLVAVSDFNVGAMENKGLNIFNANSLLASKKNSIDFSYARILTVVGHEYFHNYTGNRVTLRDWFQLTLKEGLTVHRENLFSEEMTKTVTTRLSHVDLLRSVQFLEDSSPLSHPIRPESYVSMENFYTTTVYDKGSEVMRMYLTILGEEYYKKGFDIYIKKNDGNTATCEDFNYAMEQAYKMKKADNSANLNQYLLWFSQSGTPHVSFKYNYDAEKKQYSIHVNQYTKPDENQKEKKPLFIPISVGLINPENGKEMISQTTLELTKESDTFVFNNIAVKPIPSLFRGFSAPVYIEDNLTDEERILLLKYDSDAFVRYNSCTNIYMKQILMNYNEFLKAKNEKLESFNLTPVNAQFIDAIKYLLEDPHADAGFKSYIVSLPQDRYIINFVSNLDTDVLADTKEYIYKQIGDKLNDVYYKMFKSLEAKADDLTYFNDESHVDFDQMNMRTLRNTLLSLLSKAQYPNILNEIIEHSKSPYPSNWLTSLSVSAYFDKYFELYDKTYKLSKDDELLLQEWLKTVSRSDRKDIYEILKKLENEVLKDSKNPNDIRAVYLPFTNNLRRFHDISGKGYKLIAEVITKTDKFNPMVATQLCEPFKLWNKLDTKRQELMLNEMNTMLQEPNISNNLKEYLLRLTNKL

[15] = Glucagon-like peptide 1 release potency, NCI-H716 cell line, dose-response, half-maximal inhibitory concentration (AID 1117344); assay type: functional, cell-based
[16] = half-maximal inhibitory concentration for glucagon-like peptide-1 release, STC-1 cell line, dose-response (AID 1117345); assay type: functional, cell-based
[17] = A375 melanoma cell viability loss, dose response, counter-screen for MITF modulator project, CellTiter-Glo luminescence, dry powder, set 9 (AID 651591); assay type: functional, cell-based; conditions: A-375
[18] = MITF Measured in Cell-Based System Using Plate Reader - 2084-01_Inhibitor_Dose_DryPowder_Activity_Set7.; assay type: functional
[19] = MITF Measured in Cell-Based System Using Plate Reader - 2084-01_Inhibitor_Dose_DryPowder_Activity_Set6.; assay type: functional
[20] = MALME3 melanoma cell viability reduction, dose response, orthogonal assay for MITF inhibitor project, CellTiter-Glo luminescence, dry powder, set 5 (AID 651584); assay type: functional, cell-based; conditions: MALME-3
[21] = SK-MEL-5 parental line viability, dose response, MITF inhibitor project, cell-based, CellTiter-Glo, dry powder, set 6 (AID 624429); assay type: functional
[22] = A375 melanoma cell cytotoxicity, dose response, counter-screen for MITF inhibitor project, CellTiter-Glo luminescence, dry powder, set 7 (AID 624490); assay type: functional, cell-based; conditions: A-375
[23] = MITF Orthogonal Assay: SK-MEL-5 CTG Assay Measured in Cell-Based System Using Plate Reader - 2084-02_Inhibitor_Dose_DryPowder_Activity_Set5.; assay type: functional
[24] = SK-MEL-5 parental cell viability reduction, dose response, orthogonal assay for MITF inhibitor project, CellTiter-Glo luminescence, dry powder, set 8 (AID 651586); assay type: functional, cell-based
[25] = TRPM1 promoter luciferase reporter signal decrease, dose response, MITF inhibitor project, cell-based, SK-MEL-5, dry powder, set 9 (AID 651588); assay type: functional
[26] = MITF Orthogonal Assay: MALME3 CTG Assay Measured in Cell-Based System Using Plate Reader - 2084-04_Inhibitor_Dose_DryPowder_Activity_Set6.; assay type: functional; conditions: MALME-3
[27] = A375 melanoma cell viability loss, dose response, counter-screen for MITF inhibitor project, CellTiter-Glo luminescence, dry powder, set 4 (AID 624364); assay type: functional, cell-based; conditions: A-375;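 also: A375 melanoma cells are MITF independent so this is a counter screen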
[28] = target: G-protein coupled receptor 183 (Homo sapiens, UniProt P32249); experiment: SAR confirmation of small molecule antagonists of the EBI2 receptor via a luminescent beta-arrestin assa.; assay type: functional
[29] = HepG2 cell cytotoxicity, dose response, cytotoxicity control, cherry-picked samples (AID 1159577); assay type: functional, cell-based
[30] = P. falciparum Dd2 growth inhibitors, dose response, SYBR Green, cherry-picked samples (AID 1159567); assay type: functional, cell-based
[31] = Dose-response inhibition of insulin secretion in a rat insulinoma line at 5 mM glucose (AID 1117331); assay type: functional, cell-based; conditions: INS-1E

Sequence of G-protein coupled receptor 183 (P32249 whole entry): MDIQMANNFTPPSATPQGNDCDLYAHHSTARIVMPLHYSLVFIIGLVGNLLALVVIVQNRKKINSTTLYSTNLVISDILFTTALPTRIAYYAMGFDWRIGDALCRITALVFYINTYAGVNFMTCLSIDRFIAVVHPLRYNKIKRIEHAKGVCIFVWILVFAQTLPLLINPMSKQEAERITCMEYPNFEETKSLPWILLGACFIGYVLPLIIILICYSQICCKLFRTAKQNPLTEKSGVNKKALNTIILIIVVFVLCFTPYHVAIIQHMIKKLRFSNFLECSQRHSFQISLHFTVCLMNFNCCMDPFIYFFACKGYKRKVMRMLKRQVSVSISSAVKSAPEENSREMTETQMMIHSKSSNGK
Sequence of Luciferin 4-monooxygenase (P08659 whole entry): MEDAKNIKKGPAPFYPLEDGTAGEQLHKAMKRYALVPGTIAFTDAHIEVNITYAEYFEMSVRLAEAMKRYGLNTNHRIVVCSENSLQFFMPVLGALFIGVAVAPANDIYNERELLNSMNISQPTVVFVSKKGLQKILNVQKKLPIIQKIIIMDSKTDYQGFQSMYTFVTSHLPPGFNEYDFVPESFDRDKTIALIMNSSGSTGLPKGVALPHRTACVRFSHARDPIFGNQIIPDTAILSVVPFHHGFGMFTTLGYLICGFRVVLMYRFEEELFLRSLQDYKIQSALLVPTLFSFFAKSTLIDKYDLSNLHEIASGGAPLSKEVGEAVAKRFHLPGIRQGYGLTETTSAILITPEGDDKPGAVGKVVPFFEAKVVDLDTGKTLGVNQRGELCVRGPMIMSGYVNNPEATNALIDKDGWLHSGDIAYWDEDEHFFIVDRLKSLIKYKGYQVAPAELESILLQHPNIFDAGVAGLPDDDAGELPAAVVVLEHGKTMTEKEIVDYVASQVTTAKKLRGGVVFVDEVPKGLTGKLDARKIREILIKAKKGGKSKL
Sequence of Sphingosine 1-phosphate receptor 2 (O95136 whole entry): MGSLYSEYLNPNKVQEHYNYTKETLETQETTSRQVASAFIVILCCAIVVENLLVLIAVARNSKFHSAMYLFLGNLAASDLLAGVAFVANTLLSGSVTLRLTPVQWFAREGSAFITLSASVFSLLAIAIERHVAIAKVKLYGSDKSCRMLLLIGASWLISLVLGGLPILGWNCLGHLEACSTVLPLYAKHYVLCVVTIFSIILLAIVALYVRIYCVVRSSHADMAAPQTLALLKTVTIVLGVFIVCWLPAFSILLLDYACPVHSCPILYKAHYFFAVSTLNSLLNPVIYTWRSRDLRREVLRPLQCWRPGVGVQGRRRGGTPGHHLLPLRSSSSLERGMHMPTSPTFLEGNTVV

## NS(=O)(=O)c1cccc(NS(=O)(=O)c2ccc(/C=C/C(=O)OCC(=O)c3ccccc3)cc2)c1
[1]
  CC50: > 40 µM (active)

## COc1ccccc1N1CCN(c2ccc(-c3ccccc3)nn2)CC1
[2]
  EC50: 1.7 µM (active)
[3]
  EC50: 2.33 µM (active)
[4]
  EC50: 1.93 µM (active)
[5]
  EC50: 17 µM (active)
[6]
  CC50: 13.7 µM (active)
[7]
  EC50: 3.72 µM (active)
[8]
  AC50: 25.9 µM (active)
[9]
  EC50: 5.08 µM (active)

## Cc1cc(C)n2cc(CSc3nnnn3-c3ccc(Cl)cc3)nc2n1
[10]
  EC50: > 50 µM (not active)

## CCn1c(=N)c(C(=O)NCCCOC)cc2c(=O)n3cccc(C)c3nc21
[11]
  AC50: 33.6 µM (active)
[12]
  AC50: > 52 µM (inactive)
[13]
  AC50: > 52 µM (inactive)
[14]
  IC50: 50.3 µM (active)

## Cc1c(C)c2c(c(C)c1OC(=O)CCC(=O)OCCO)CC[C@@](C)(CCC[C@H](C)CCC[C@H](C)CCCC(C)C)O2
[15]
  IC50: > 40 µM (inactive)
[16]
  IC50: > 40 µM (inactive)

## Cc1cccc(S(=O)(=O)N2C[C@@H]3N[C@H](C2)[C@@H]3c2ccc(-c3ccccc3C)cc2)c1
[8]
  AC50: 12.8 µM (active)

## NC1=C(NS(=O)(=O)c2cccs2)C(=O)c2ccccc2C1=O
[17]
  AC50: > 70 µM (inactive)
[18]
  AC50: 5.42 µM (active)
[19]
  AC50: 5.31 µM (active)
[20]
  AC50: 32.5 µM (active)
[21]
  AC50: 16.7 µM (active)
[22]
  AC50: 53 µM (active)
[23]
  AC50: 16.9 µM (active)
[24]
  AC50: 22.1 µM (active)
[25]
  AC50: 21.3 µM (active)
[26]
  AC50: 32.5 µM (active)
[27]
  AC50: > 70 µM (inactive)

## O=C(/C=C/c1ccc(Br)cc1)N1CCN(Cc2ccc(Cl)cc2F)CC1
[28]
  IC50: 0.00811 µM (active)

## O=C(/C=C/c1ccc(Cl)cc1F)N1CCN(S(=O)(=O)c2ccccc2)CC1
[28]
  IC50: 0.184 µM (active)

## COc1cccc(CN(C)C[C@H]2OCc3ccccc3-c3c(n(C)c4ccccc34)C(=O)N([C@H](C)CO)C[C@H]2C)c1
[29]
  AC50: > 39 µM (inactive)
[30]
  AC50: 6.01 µM (active)

## CN(C)CCOC(C)(c1ccccc1)c1ccccn1 (stereo not drawn) [DOXYLAMINE SUCCINATE]
[31]
  IC50: > 33.3 µM (inactive)
